Assay results taken from patent US20080058400A1, “Skin external preparation” (FUJIFILM CORPORATION, priority 2006, published 2008).

Experiments:
[1] = test system: abdominal skin of male hairless mice; conditions: for Permeability (%) of the permeated whole amino acids: male, hairless, mouse, 24 h, 1 % by weight
Method: The skin sample was attached to a Keshany-Chien type diffusion cell. A 1 ml portion of each test liquid (described later) was added to the donor phase, and its upper side was sealed with Para Film. A 0.01 mol/l phosphate buffered saline (Wako Pure Chemical Industries) was added to the receptor phase, stirred and incubated at 32° C., and amounts of amino acids were determined by an HPLC method 24 hours later to calculate permeation ratio.
Using an HPLC amino acid analysis system of Shimadzu Corp. (Prominence), the determination was carried out by a post column fluorescence detection method which uses OPA (ortho-phthalaldehyde) as a reaction reagent.

[2] = test system: Human normal epidermal keratinocytes; assay: Amino acid deficient medium culturing test; assay type: cell-based; conditions: for Relative ratio: number of cells, named amino acid reduced to 10% by weight of general MCDB 153 medium concentration, 5 days culture, non-deficient medium = 100; for growth of human epidermal keratinocytes in deficient medium: medium deficient in the named amino acid
Method: Human normal epidermal keratinocytes (Sanko Junyaku) were used as the cells. […] The cells were pre-cultured at 37° C., under an atmosphere of 5% (v/v) CO2 until they became a semi-confluent state.
The keratinocytes cultured under a growing state in a T 75 flask were used. After removing the medium by suction, 5 ml of 0.25% trypsin solution was added thereto and incubated at room temperature for 10 minutes. A 10 ml portion of the medium was added thereto, and the cells were peeled off and recovered by pipetting. The thus obtained cell suspension was centrifuged at 1,000 rpm for 5 minutes, and the supernatant was discarded. The thus obtained cell pellet was suspended in 10 ml of the medium and centrifuged at 1,000 rpm for 5 minutes, and the supernatant was discarded. The thus obtained cell pellet was again suspended in 10 ml of the medium and centrifuged at 1,000 rpm for 5 minutes, and the supernatant was discarded. The thus obtained cell pellet was suspended in 2 ml of the medium, and the number of cells was counted.
As growth factors, 50 mg/l of BPE (bovine pituitary gland extract), 5 mg/l of insulin, 0.1 mM ethanolamine, 0.1 mM phosphoethanolamine and 0.00001 mg EGF ([…]) were added thereto. The aforementioned cells were mixed with 1 ml of this medium at a density of 3×10^4 cells, inoculated onto a 24 well plate and cultured at 37° C. for 5 days under an atmosphere of 5% (v/v) CO2, and then the number of cells was counted.

SMILES: C[C@H](N)C(=O)O [Alanine]
- Permeability of each amino acid [1]: 8.4%
- Relative ratio [2]: 14

SMILES: N=C(N)NCCC[C@H](N)C(=O)O [Arginine]
- Permeability of each amino acid [1]: 18.1%
- growth of human epidermal keratinocytes in deficient medium [2]: growth was suppressed
- Relative ratio [2]: 8

SMILES: NC(=O)C[C@H](N)C(=O)O [Asparagine]
- Permeability of each amino acid [1]: 14.2%
- Relative ratio [2]: 13

SMILES: N[C@@H](CC(=O)O)C(=O)O [Aspartic acid]
- Permeability of each amino acid [1]: 19.1%
- growth of human epidermal keratinocytes in deficient medium [2]: growth was suppressed
- Relative ratio [2]: 6

SMILES: N[C@@H](CS)C(=O)O [Cysteine]
- Permeability of each amino acid [1]: 14.7%
- growth of human epidermal keratinocytes in deficient medium [2]: growth was suppressed
- Relative ratio [2]: 9

SMILES: OC[C@H]1OC(O)[C@H](O)[C@@H](O)[C@@H]1O (stereo partly shown) [Glucose]
- Permeability (%) of the permeated whole amino acids [1]: 9.6%

SMILES: N[C@@H](CCC(=O)O)C(=O)O [Glutamic acid]
- Relative ratio [2]: 15

SMILES: NC(=O)CC[C@H](N)C(=O)O [Glutamine]
- Permeability of each amino acid [1]: 10.2%
- Relative ratio [2]: 16

SMILES: NCC(=O)O [Glycine]
- Permeability of each amino acid [1]: 14.3%
- growth of human epidermal keratinocytes in deficient medium [2]: growth was suppressed
- Relative ratio [2]: 9

SMILES: N[C@@H](Cc1c[nH]cn1)C(=O)O [Histidine]
- Permeability of each amino acid [1]: 15.2%
- growth of human epidermal keratinocytes in deficient medium [2]: growth was suppressed
- Relative ratio [2]: 7

SMILES: CC[C@H](C)[C@H](N)C(=O)O [Isoleucine]
- Permeability of each amino acid [1]: 20.8%
- growth of human epidermal keratinocytes in deficient medium [2]: growth was suppressed
- Relative ratio [2]: 7

SMILES: CC(C)C[C@H](N)C(=O)O [Leucine]
- Permeability of each amino acid [1]: 21.3%
- growth of human epidermal keratinocytes in deficient medium [2]: growth was suppressed
- Relative ratio [2]: 6

SMILES: NCCCC[C@H](N)C(=O)O [Lysine]
- Permeability of each amino acid [1]: 19.6%
- growth of human epidermal keratinocytes in deficient medium [2]: growth was suppressed
- Relative ratio [2]: 9

SMILES: CSCC[C@H](N)C(=O)O [Methionine]
- Permeability of each amino acid [1]: 7.4%
- Relative ratio [2]: 12

SMILES: N[C@@H](Cc1ccccc1)C(=O)O [Phenylalanine]
- Permeability of each amino acid [1]: 15.1%
- growth of human epidermal keratinocytes in deficient medium [2]: growth was suppressed
- Relative ratio [2]: 4

SMILES: O=C(O)[C@@H]1CCCN1 [Proline]
- Permeability of each amino acid [1]: 7.9%
- Relative ratio [2]: 13

SMILES: N[C@@H](CO)C(=O)O [Serine]
- Permeability of each amino acid [1]: 15.2%
- growth of human epidermal keratinocytes in deficient medium [2]: growth was suppressed
- Relative ratio [2]: 6

SMILES: C[C@@H](O)[C@H](N)C(=O)O [Threonine]
- Permeability of each amino acid [1]: 19.3%
- growth of human epidermal keratinocytes in deficient medium [2]: growth was suppressed
- Relative ratio [2]: 8

SMILES: OC[C@H]1O[C@H](O[C@H]2O[C@H](CO)[C@@H](O)[C@H](O)[C@H]2O)[C@H](O)[C@@H](O)[C@@H]1O [Trehalose]
- Permeability (%) of the permeated whole amino acids [1]: 7.2%

SMILES: N[C@@H](Cc1c[nH]c2ccccc12)C(=O)O [Tryptophan]
- Permeability of each amino acid [1]: 3.6%
- Relative ratio [2]: 15

SMILES: N[C@@H](Cc1ccc(O)cc1)C(=O)O [Tyrosine]
- growth of human epidermal keratinocytes in deficient medium [2]: growth was suppressed

SMILES: CC(C)[C@H](N)C(=O)O [Valine]
- Permeability of each amino acid [1]: 14.9%
- growth of human epidermal keratinocytes in deficient medium [2]: growth was suppressed
- Relative ratio [2]: 9
